Drawing on ChEMBL document CHEMBL3399953, “Structure-assisted ligand-binding analysis using fluorogenic photoaffinity labeling” (Bioorg Med Chem Lett, 2015), this text covers Activity, Retention time and inhibition for two molecules.

Each structure is given as a SMILES string. Calls of active or inactive are those of the source. No cut-off for these calls is given here.

The target of assay [1] is Glutamate dehydrogenase 1, mitochondrial (Bos taurus) (UniProt P00366). Nature of the assay: Binding affinity to bovine glutamate dehydrogenase ATP binding site using assessed as fluorescence intensity at 80 uM by photo affinity labeling/reverse-phase HPLC of Lys-Cdigest assay in presence of ATP.
The target is the same in assay [2]. Nature of the assay: Binding affinity to bovine glutamate dehydrogenase ATP binding site using assessed as photo labeling level at 80 uM by photo affinity labeling/reverse-phase HPLC of Lys-Cdigest assay in presence of ATP.
Assay [3] shares this target. Nature of the assay: Binding affinity to bovine glutamate dehydrogenase ATP binding site using assessed as photo labeling level at 80 uM by photo affinity labeling/reverse-phase HPLC of Lys-Cdigest assay in presence of ADP.
Assay [4] shares this target. Nature of the assay: Binding affinity to bovine glutamate dehydrogenase ATP binding site using assessed as photo labeling peak time at 80 uM by photo affinity labeling/reverse-phase HPLC of Lys-Cdigest assay in presence of 100 uM NADH/10 mM glutamate.
Assay [5] has the same target. Nature of the assay: Binding affinity to bovine glutamate dehydrogenase ATP binding site using assessed as coumarin-labeled pepdite retention time at 80 uM by photo affinity labeling/reverse-phase HPLC of Lys-Cdigest assay in presence of ATP.
For assay [6] the target is unchanged. Nature of the assay: Binding affinity to bovine glutamate dehydrogenase ATP binding site using assessed as decrease in photo labeling peak time at 80 uM by photo affinity labeling/reverse-phase HPLC of Lys-Cdigest assay in presence of 100 uM NADH/10 mM glutamate relative to NADH alone.
For assay [7] the target is unchanged. Nature of the assay: Binding affinity to bovine glutamate dehydrogenase ATP binding site using assessed as photo labeling level at 80 uM by photo affinity labeling/reverse-phase HPLC of Lys-Cdigest assay in presence of NADH.

Glutamate dehydrogenase 1, mitochondrial (Bos taurus), sequence (P00366 whole entry): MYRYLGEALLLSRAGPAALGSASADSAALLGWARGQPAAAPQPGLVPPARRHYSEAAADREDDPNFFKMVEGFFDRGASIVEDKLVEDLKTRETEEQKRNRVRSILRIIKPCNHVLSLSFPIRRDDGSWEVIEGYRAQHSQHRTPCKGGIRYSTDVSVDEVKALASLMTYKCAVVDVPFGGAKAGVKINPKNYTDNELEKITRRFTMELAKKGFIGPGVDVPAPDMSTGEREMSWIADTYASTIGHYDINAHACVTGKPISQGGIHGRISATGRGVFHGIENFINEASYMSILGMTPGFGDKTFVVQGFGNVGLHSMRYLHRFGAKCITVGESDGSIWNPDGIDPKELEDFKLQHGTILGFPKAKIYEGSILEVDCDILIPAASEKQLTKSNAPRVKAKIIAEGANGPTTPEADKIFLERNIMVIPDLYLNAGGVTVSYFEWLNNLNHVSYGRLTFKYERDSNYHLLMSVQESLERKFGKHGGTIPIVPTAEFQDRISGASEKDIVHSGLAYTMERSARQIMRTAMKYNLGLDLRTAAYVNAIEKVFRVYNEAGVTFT

What is called inhibition is the percentage by which the read-out fell short of the control. Regarding `C/C(=C\c1ccc(C2(C(F)(F)F)N=N2)cc1O)C(=O)NCCNP(=O)(O)OP(=O)(O)OP(=O)(O)OC[C@H]1O[C@@H](n2cnc3c(N)ncnc32)[C@H](O)[C@@H]1O`, the outcome in assay [1] was Active. Further, the values for the Activity in assay [2], in assay [3] and in assay [7] were 55%, 10% and 89%, respectively. The Retention time in assay [4] and in assay [5] was 21.1 min throughout. The inhibition in assay [6] amounted to 59%.
As to `C/C(=C\c1ccc(C2(C(F)(F)F)N=N2)cc1O)C(=O)NCCNP(=O)(O)OP(=O)(O)OC[C@H]1O[C@@H](n2cnc3c(N)ncnc32)[C@H](O)[C@@H]1O`, the result in assay [1] and in assay [3] was Active.
